Data reported in US12180159B2, “Activators of the unfolded protein response” (The Board of Trustees of the University of Illinois, priority 2018, dated 2024).
Where “and” joins values, the source holds several entries; their conditions need not be identical. Equal values may be shown once.

Assays:
[1] = system: TYS-Luc (T47DERαY537S-Luc human breast cancer cells) orthotopic tumors; test: Orthotopic TYS-Luc mouse xenograft, bioluminescent imaging (BLI) of tumor flux; type: in vivo
Procedure: In a treatment and vehicle-controlled mouse tumor study, human breast cancer cells were engineered to contain both the lethal ERαY537S mutation found in metastatic breast cancer, and the gene for firefly luciferase—when the appropriate chemical is added, the firefly luciferase breaks down the chemical and light is produced. Using a sensitive detector called an imaging system, this allows us to image the tumors inside live mice. This is called bioluminescent imaging, or BLI. Large tumors were allowed to form. Then (−)-105 was injected daily under the skin for three weeks. Using the imaging system, the effect of (−)-105 on the tumors was monitored. At the same time the effect of the vehicle in which (−)-105 was dissolved on tumors was also monitored.
A study was performed to determine what happens after stopping treatment with (−)-105 (Table 2). The study was designed to show whether the micro-tumors would remain dormant, or whether they would regrow. At the end of the three-week treatment, there is residual material that gives off a tiny amount of light which are termed “micro-tumors”. Based on sensitivity of the imaging system, it is believed these micro-tumors contain anywhere from 0-˜1,000 cancer cells; the micro-tumors will not be visible to the naked eye. Seeing them requires the powerful imaging system, or a microscope. To test whether these cells are either dead, or no longer dividing and are dormant, the cells two and 4 weeks after they stopped receiving any treatment were imaged. This study tested whether growing cancer cells have been eradicated; this study continues.
In a 3-week study, large breast tumors were present at start of treatment and regressed as shown in the image of FIG. 17. The study was performed using Orthotopic TYS-Luc (injected cells: T47DERα Y537-Luc human breast cancer cells), e.g., the most lethal ERα mutation in human in metastatic breast cancer. Tumors were grown in NSG mice. Further details are provided in the Examples.
Experimental Details of the Xenografts: TYS-Luc cells (5,000,000 cells in Matrigel) were injected into the upper mammary fat pad of ovariectomized female NSG (SCID) mice (Jackson labs). After 10 weeks, on day 0, large tumors (size range: 100-600 mm^3) were present. Mice were treated with the vehicle used to dissolve (−)-105, or (−)-105 at 40 mg/kd daily by subcutaneous injection. For bioluminescent imaging (BLI) of the tumors, the mice were anesthetized with isoflurane and Lucerfin, the luciferase substrate, was injected into the mice. Flux, the total member of light photons hitting the detector in one second was measured using an IVIS ([…]). Shown is the flux (in millions of units per second) for the entire area containing each tumor, or an equivalent area when the tumor is tiny or undetectable and the percent change in tumor size at each time a measurement was taken (day 0, day 3, week 1, week 2, week 3). Then treatment was stopped, and another measurement was taken two weeks letter. Note that tumors were also measured with calipers. […] After three days all the (−)-105 tumors has declined to undetectable using calipers.

[2] = system: (BHPI-sensitive) parental T47D cells; test: Growth of parental T47D cells (MTS); type: cell-based, human; conditions: 100 nM and 1 μM, 4 days
Procedure: ERα containing T47D human breast cancer cells able to survive in 1 μM BHPI were selected by clonal outgrowth. The effect of 100 nM and 1 μM BHPI and (−)-105 on growth of the (BHPI-sensitive) parental T47D cells and partially BHPI-resistant T47D clones 1, 3, 8, and 11 was evaluated. 4,000 cells/well were plated. Cell number was determined by MTS assay from a standard curve of absorbance versus cell number. […] Thus, in 4 days (−)-105 killed some, but not all, of the resistant cells.

[3] = system: MCF-7 ERα Y537S-luciferase cells; test: Long-term cell culture experiment, MCF-7Y537S cells; type: cell-based, human; conditions: conditions as FIG. 15
ERα cell lines = test: 24-hour crystal violet assay and long-term cell culturing; type: cell-based, human; conditions: 24-hour crystal violet assay and long-term culture
Procedure: FIG. 36. Discovery of SERK-F6 (also known as, C(−)-105, (−)-105, (R)-105, (−)-1, or (R)-1), a compound that kills ERα-positive cancer cells. a, Chemical structures of BHPI and racemic compound 1 (i.e. (±)-1), and their cytotoxic activity on T47D breast cancer cells after 24-hour incubations with concentrations as indicated in nM. Cells were stained with annexin V-FITC and PI dyes prior to analysis via flow cytometry. […] Cells were incubated with SERK-F6 or positive control, Raptinal, for 24 hours and then stained with annexin V-FITC and PI dyes and analyzed via flow cytometry. Error bars represent S.E.M of 3 independent replicates. c, IC50 values of SERK-F6 after 24-hour incubation against a panel of cancer cell lines grouped by their reported ERα status. Cell viability was measured by Alamar blue fluorescence and set relative to a vehicle control and a quantitative dead control treated with Raptinal. Error bars represent S.E.M of 3 independent experiments. d, Crystal violet staining of T47D cells after 24-hour incubations with compounds and concentrations as indicated. Image is representative of 2 independent experiments. e,f, Long-term cell culture experiment with T47D, TDG, and TYS cells. […] Cell number was determined by MTS. […]
An important aspect for cytotoxic therapy is the ability to quantitatively kill a cell population. […]

[4] = system: protein synthesis in Caov-3 cells; test: Inhibition of protein synthesis (35S-methionine incorporation); type: cell-based, human; conditions: 1,000 nM
Procedure: ERα positive Caov-3, human ovarian cancer cells, were treated for the indicated times with 1,000 nM BHPI or 1,000 nM (−)-105. Cells were briefly labeled with ^35S-methionine. Incorporation of labeled ^35S-methionine into protein was determined by trichloroacetic acid precipitation and trapping of precipitated protein, but not free amino acids, in small Whatman hardened ashless filters. After solubilizing the protein in the filters with base and neutralization with acid, the samples were counted in a liquid scintillation counter. Shown is the average (n≥3) percent inhibition of protein synthesis compared to the 0-time sample. The near quantitative inhibition of protein synthesis by (−)-105 is consistent with (−)-105 inducing lethal hyperactivation of the PERK arm of the UPR. Even non-growing cells are constantly degrading protein and making new proteins. Cells in which nearly all (>90%) of protein synthesis is inhibited cannot grow and will ultimately die.

[5] = after 3 days of treatment, all 5 mice

For `O=C1Nc2c(C(F)(F)F)cccc2C1(c1ccc(O)cc1)c1ccc(OC(F)(F)F)cc1` (single isomer, unassigned; (-)) [(−)-105, 3-(4-hydroxyphenyl)-3-(4-(trifluoromethoxy)phenyl)-7-(trifluoromethyl)indolin-2-one], the “micro-tumor regrowth after stopping treatment” value ([1]; 4 weeks after stopping treatment) was “NO “MICRO-TUMOR” REGROWTH”, the “tumor shrinkage (regression) by BLI, 4 of the 5 tumors” value ([1]; after 3 days of treatment, 4 of 5 tumors) was “more than 99.9%” and the “tumor shrinkage (regression) by BLI, all five tumors” value [1, 5] was “more than 99%”. For the same molecule, the “tumor size using calipers” value [1, 5] was “undetectable”, the “tumor shrinkage by BLI, 3 of the remaining 4 mice” value ([1]; after three weeks) was “more than 99.9%” and the “tumor change in one mouse (complete regression)” value ([1]; after three weeks, one mouse) was −100%. The “Day 0 Flux” value ([1]; per mouse, day 0 (start of treatment, baseline)) was 2,130 millions of photons/sec and 277 millions of photons/sec and 72.6 millions of photons/sec and 1,880 millions of photons/sec and 1,650 millions of photons/sec, the “Day 14 % Change in Tumor Flux” value ([1]; per mouse, day 14 vs day 0) was 99.66% and the “health of the treated mice / toxicity” value ([1]; three-week treatment) was “No toxicity”. The “micro-tumor regrowth after stopping treatment” value ([1]; two weeks after treatment was stopped) was “the microtumors had not started growing again”, the “tumor size using calipers” value ([1]; within seven days, all 5 tumors) was “undetectable” and the “growth / killing of parental T47D cells” value [2] was “killed all the T47D cells”. The “effect on MCF-7Y537S cells in long-term experiments” value [3] was “eradicates”, the “quantitative killing of ERα cell lines” value (ERα cell lines) was “quantitatively kills” and the “inhibition of the synthesis of new proteins” value [4] was “near-quantitative, inhibition”.
